From US20240417393A1, “CERTAIN 2,5-DIAZABICYCLO[4.2.0]OCTANES AS GLP-1 RECEPTOR MODULATORS” (ASTRAZENECA AB, priority 2021, published 2024)

Tests used:
[1] = target: T1, human phosphodiesterase-3A (Homo sapiens, UniProt Q14432); experiment: PDE3 Assay ([3H]cAMP to 5'AMP, SPA); format: biochemical; conditions: human recombinant PDE3A expressed in Sf9 cells; 450 nM cAMP; 20 min at 22° C.
T1 construct: host or cells: Sf9 (Spodoptera frugiperda) cells
Method: Evaluation of the effects of compounds on the activity of the human phosphodiesterase-3A is quantified by measuring the formation of 5′AMP from cAMP using a human recombinant is enzyme expressed in a clonal isolate of Spodoptera frugiperda cells (Sf9) cells.
The test compound, reference compound or water (control) are added to a buffer containing 40 mM tris(hydroxymethyl)aminomethane (Tris)/HCl (pH 7.4) and 8 mM MgCl2, 450 nMcAMP and 0.25 μCi [^3H]cAMP.
Thereafter, the reaction is initiated by addition of the enzyme (about 1U) and the mixture is incubated for 20 min at 22° C.
For basal control measurements, the enzyme is omitted from the reaction mixture.
Following incubation SPA beads are added. After 30 min at 22° C. under shaking, the amount of [^3H]5′AMP is quantified with a scintillation counter (Topcount, Packard).
The results are expressed as a percent inhibition of the control enzyme activity. The standard inhibitory reference compound is milrinone (CAS number 78415-72-2), which is tested in each experiment at several concentrations to obtain an inhibition curve from which its IC50 value is calculated.

[2] = target: T2, GLP-1R in a pancreatic insulinoma cell line (EndoC-PH1) (Homo sapiens, UniProt P43220); experiment: EndoC cAMP Accumulation Assay (HTRF); format: cell-based; conditions: EndoC-PH1 human pancreatic beta cell line, endogenous GLP-1R, 30 min at rt
T2 construct: host or cells: EndoC-βH1 human pancreatic beta cell line
Method in brief: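 Thawed human EndoC-βH1 cells, about 3000 per well, stimulated with compound 30 min at room temperature in HBSS/HEPES pH 7.4 with 0.1% BSA and 0.5 mM IBMX; cAMP by competitive HTRF. Responses as % activation relative to maximal GIP (82.5 nM), 4-parameter logistic fit.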

human GLP-1R receptor = target: T3, human GLP-1R receptor (Homo sapiens, UniProt P43220, L260F); experiment: CHOK1 GLP-1R cAMP Assay (HTRF); format: cell-based; conditions: CHO-K1 cells stably expressing human GLP-1R (Leu260Phe variant), 20 min at rt
T3 construct: expressed in transfected cells; host or cells: CHO-K1 (ATCC CCL-61)
T3 sequence (P43220 24-463 L260F): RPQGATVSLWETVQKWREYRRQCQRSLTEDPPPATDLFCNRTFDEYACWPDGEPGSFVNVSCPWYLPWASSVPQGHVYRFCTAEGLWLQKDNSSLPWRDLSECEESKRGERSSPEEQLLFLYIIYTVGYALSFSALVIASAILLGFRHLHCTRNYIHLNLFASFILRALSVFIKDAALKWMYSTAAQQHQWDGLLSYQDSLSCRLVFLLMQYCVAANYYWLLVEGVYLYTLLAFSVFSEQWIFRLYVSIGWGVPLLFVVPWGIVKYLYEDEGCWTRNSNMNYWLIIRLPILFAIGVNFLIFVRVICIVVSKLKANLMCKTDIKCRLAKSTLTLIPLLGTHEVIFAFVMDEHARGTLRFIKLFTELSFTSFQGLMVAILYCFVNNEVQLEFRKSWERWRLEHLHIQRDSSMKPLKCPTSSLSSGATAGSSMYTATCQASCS

T2 sequence (P43220 24-463): as the sequence (P43220 24-463 L260F) above, with F237L counted along it
T1 sequence (Q14432 whole entry): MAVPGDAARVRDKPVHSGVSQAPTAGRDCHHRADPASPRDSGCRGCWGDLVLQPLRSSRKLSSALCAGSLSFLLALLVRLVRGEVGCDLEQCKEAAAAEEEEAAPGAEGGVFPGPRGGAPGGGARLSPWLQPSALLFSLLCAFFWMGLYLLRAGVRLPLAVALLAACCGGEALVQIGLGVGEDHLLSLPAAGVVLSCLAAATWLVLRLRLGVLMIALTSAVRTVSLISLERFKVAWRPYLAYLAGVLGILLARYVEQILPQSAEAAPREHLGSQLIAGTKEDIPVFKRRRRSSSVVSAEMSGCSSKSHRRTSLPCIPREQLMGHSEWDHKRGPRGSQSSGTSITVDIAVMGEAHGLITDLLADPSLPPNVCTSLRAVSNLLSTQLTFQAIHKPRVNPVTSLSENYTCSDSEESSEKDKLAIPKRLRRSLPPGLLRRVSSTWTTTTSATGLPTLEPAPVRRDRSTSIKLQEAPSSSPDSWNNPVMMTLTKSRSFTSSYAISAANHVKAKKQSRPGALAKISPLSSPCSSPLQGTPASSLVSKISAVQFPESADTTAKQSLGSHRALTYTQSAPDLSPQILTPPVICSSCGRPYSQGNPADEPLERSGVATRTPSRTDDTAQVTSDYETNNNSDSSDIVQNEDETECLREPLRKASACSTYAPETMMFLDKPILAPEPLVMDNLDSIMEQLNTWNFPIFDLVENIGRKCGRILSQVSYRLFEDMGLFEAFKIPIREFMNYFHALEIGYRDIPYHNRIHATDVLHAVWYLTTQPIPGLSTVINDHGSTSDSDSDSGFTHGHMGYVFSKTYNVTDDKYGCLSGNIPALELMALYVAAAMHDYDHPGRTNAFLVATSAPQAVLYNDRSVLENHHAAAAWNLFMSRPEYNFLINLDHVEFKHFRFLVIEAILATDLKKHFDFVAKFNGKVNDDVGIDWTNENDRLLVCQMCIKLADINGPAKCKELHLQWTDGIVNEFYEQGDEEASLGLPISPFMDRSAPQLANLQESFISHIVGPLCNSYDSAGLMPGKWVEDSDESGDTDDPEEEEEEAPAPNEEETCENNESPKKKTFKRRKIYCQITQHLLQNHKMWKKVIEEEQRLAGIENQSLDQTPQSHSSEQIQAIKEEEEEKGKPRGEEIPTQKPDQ

Compound | IC50 [1] [nM] | EC50 [2] [nM] | EC50 (human GLP-1R receptor) [nM]
COc1cc(C(=O)O)cc2c1nc(CN1CCN(c3cccc4c3O[C@@](C)(c3ccc(Cl)cn3)O4)[C@@H]3CC[C@@H]31)n2C[C@@H]1CCO1 (single isomer, unassigned) [Example 2a, 2-((1R*,6S*)-5-(R*)-2-(5-Chloropyridin-2-yl)-2-methylbenzo[d][1,3]dioxol-4-yl)-2,5-diazabicyclo[4.2.0]octan-2-yl)methyl)-4-methoxy-1-(((S)-oxetan-2-yl)methyl)-1H-benzo[d]imidazole-6-carboxylic acid] | > 100000 |  | 
COc1cc(C(=O)O)cc2c1nc(CN1CCN(c3cccc4c3O[C@@](C)(c3ccc(Cl)cn3)O4)[C@H]3CC[C@@H]31)n2C[C@@H]1CCO1 (single isomer, unassigned) [Example 6a, 2-(((1R*,6R*)-5-((R*)-2-(5-Chloropyridin-2-yl)-2-methylbenzo[d][1,3]dioxol-4-yl)-2,5-diazabicyclo[4.2.0]octan-2-yl)methyl)-4-methoxy-1-(((S)-oxetan-2-yl)methyl)-1H-benzo[d]imidazole-6-carboxylic acid] | > 100000 |  | 
COc1cc(C(=O)O)cc2c1nc(CN1CCN(c3cccc4c3O[C@@](C)(c3ccc(Cl)cn3)O4)[C@@H]3CC[C@@H]31)n2C[C@@H]1CCO1 (single isomer, unassigned) [Example 2d, 2-((1R*,6S*)-5-(R*)-2-(5-Chloropyridin-2-yl)-2-methylbenzo[d][1,3]dioxol-4-yl)-2,5-diazabicyclo[4.2.0]octan-2-yl)methyl)-4-methoxy-1-(((S)-oxetan-2-yl)methyl)-1H-benzo[d]imidazole-6-carboxylic acid] | > 100000 |  | 
C[C@]1(c2ccc(Cl)cn2)Oc2cccc(N3CCN(Cc4nc5c(F)cc(C(=O)O)cc5n4CC4(C#N)CC4)[C@H]4CC[C@@H]43)c2O1 (single isomer, unassigned) [Example 24a] |  | 16 | 32
CCn1ccnc1Cn1c(CN2CCN(c3cccc4c3O[C@@](C)(c3ccc(Cl)cn3)O4)[C@H]3CC[C@@H]32)nc2c(Cl)cc(C(=O)O)cc21 (single isomer, unassigned) [Example 10c] |  | 1000 | 240
C[C@]1(c2ccc(Cl)cn2)Oc2cccc(N3CCN(Cc4nc5c(F)cc(C(=O)O)cc5n4CC4(CC#N)CC4)[C@H]4CC[C@@H]43)c2O1 (single isomer, unassigned) [Example 23c] |  | 360 | 140
C[C@]1(c2ccc(Cl)cn2)Oc2cccc(N3CCN(Cc4nc5c(Cl)cc(C(=O)O)cc5n4CC4(CC#N)CC4)[C@H]4CC[C@@H]43)c2O1 (single isomer, unassigned) [Example 26d] |  | 7 | 10
COc1cc2nc(CN3CCN(c4cccc5c4OC(C)(c4ccc(Cl)cn4)O5)[C@H]4CC[C@@H]43)n(C[C@@H]3CCO3)c2cc1C(=O)O (mixture of isomers) [Example 12, 2-(((1RS,6RS)-5-(2-(5-Chloropyridin-2-yl)-2-methylbenzo[d][1,3]dioxol-4-yl)-2,5-diazabicyclo[4.2.0]octan-2-yl)methyl)-5-methoxy-1-(((S)-oxetan-2-yl)methyl)-1H-benzo[d]imidazole-6-carboxylic acid] |  | 320 | 200
COc1cc(C(=O)O)cc2c1nc(CN1CCN(c3cccc4c3O[C@@](C)(c3ccc(Cl)cn3)O4)[C@H]3CC[C@@H]31)n2CC1(C#N)CC1 (single isomer, unassigned) [Example 25a] |  | 260 | 130
C[C@]1(c2ccc(Cl)cc2F)Oc2cccc(N3CCN(Cc4nc5ccc(C(=O)O)cc5n4C[C@@H]4CCO4)[C@H]4CC[C@@H]43)c2O1 (single isomer, unassigned) [Example 21a, 2-(((1R*,6R*)-5-((R*)-2-(4-Chloro-2-fluorophenyl)-2-methylbenzo[d][1,3]dioxol-4-yl)-2,5-diazabicyclo[4.2.0]octan-2-yl)methyl)-1-(((S)-oxetan-2-yl)methyl)-1H-benzo[d]imidazole-6-carboxylic acid] |  | 7.3 | 7
